{
  "source": "patent US12590105B2",
  "about": "“KRas G12C inhibitors” (Eli Lilly and Company, priority 2020, dated 2026)",
  "key": {"[1]": {"test_system": "phosphorylation of p-ERK1/2 in H358 cells", "test": "H358 Cellular Phospho-ERK AlphaLISA", "format": "cell-based", "details": "NCI-H358; H358 human lung cancer cells, 2 hours incubation; read-out: relative IC50, inhibition of phosphorylation of p-ERK1/2", "description": "The purpose of this assay is to measure the ability of test compounds to inhibit the phosphorylation of p-ERK1/2, a downstream effector of KRas in human lung cancer cells H358 (ATCC CRL-5807). Briefly, the AlphaLISA® SureFire® Ultra™ p-ERK 1/2 (Thr202/Tyr204) assay is a sandwich immunoassay for quantitative detection of phospho-ERK 1/2 (phosphorylated on Thr202/Tyr204 in ERK1, or Thr185/Tyr187 in ERK2) in cellular lysates using Alpha Technology (Perkin Elmer Cat #ALSU-PERK-A50K).\nH358 cells are plated at 40K cells per well in 100 μL media (RPMI 1640, GIBCO Cat #22400-071) containing 10% FBS (GIBCO Cat #: 10082-147) in a 96 well plate (Costar #3596) and are incubated overnight in humid trays at 37° C., 5% CO2. […] The assay plate is then read on an EnVision™ Plate Reader (Perkin Elmer) using a luminescence program. […]"}, "[2]": {"biological_target": "T1, constitutive RAS GTPase activity in H358 cells (Homo sapiens, UniProt P01116, G12C)", "T1 construct": "host or cells: H358 human lung cancer cells", "T1 sequence (P01116 1-188 isoform P01116-2 G12C)": "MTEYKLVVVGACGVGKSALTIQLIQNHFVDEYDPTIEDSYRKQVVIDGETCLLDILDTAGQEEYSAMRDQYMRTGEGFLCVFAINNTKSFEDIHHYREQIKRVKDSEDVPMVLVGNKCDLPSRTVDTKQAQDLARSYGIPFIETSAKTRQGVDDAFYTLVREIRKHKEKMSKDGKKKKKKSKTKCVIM", "test": "H358 Cellular Active RAS GTPase ELISA", "format": "cell-based", "details": "H358 human lung cancer cells, serum free media, 2 hours incubation; read-out: relative IC50, inhibition of constitutive RAS GTPase activity", "description": "The purpose of this assay is to measure the ability of test compounds to inhibit constitutive RAS GTPase activity in human lung cancer cells H358 (ATCC CRL-5807). The RAS GTPase ELISA kit (Active Motif Cat #52097) contains a 96-well plate pre-coated with glutathione in order to capture a kit-supplied GST-Raf-RBD protein. Activated RAS (GTP-bound) in cell extracts specifically bind to the Raf-RBD. Bound RAS is detected with a primary antibody that recognizes human KRas. A secondary antibody conjugated with HRP recognizes the primary antibody and a development solution provides a chemiluminescent readout.\nH358 cells are plated at 80,000 cells/well in 90 μL serum free media (RPMI 1640, GIBCO) and incubated overnight at 37° C./5% CO2. The next morning, 10 μL of serially-diluted (3-fold) test compounds (500 μM top concentration) and 10 μL of controls (Maximum signal wells: 5% DMSO and Minimum signal wells: 500 μM 1-[4-[6-chloro-8-fluoro-7-(3-hydroxy-1-naphthyl)quinazolin-4-yl]piperazin-1-yl]prop-2-en-1-one, WO2015054572 as an inhibitor) are added to the cell plate and incubated for 2 hours at 37° C./5% CO2. Complete Lysis/Binding Buffer is prepared containing Protease Inhibitor cocktail and GST-Raf-RBD and stored on ice. […] The assay plate is then read on an EnVision™ Plate Reader (Perkin Elmer) using a luminescence program. […]"}, "[3]": {"biological_target": "KRas G12C (Homo sapiens, UniProt P01116, G12C)", "sequence (P01116 1-188 isoform P01116-2 G12C)": "as above", "test": "KRas G12C Probe Occupancy TR-FRET Assay", "details": "His-tagged KRas G12C; inhibitor incubated 5 or 60 minutes (which one applies is not stated); read-out: relative IC50, competition with KRas Probe for binding to and covalently modifying KRas G12C", "description": "The purpose of this assay is to measure the ability of an inhibitor to compete with a probe for binding to and covalently modifying KRas G12C at codon 12. The signal is generated by the time-resolved transfer of fluorescence between europium on an antibody bound to KRas G12C Europium-labeled Anti-Histidine Tag Antibody LanthaScreen (the Eu Anti-His antibody) and fluorescent Tracer 647 (Alexa Fluor™) bound to KRas G12C through streptavidin and a biotinylated inhibitor (the “KRas Probe”, see Preparation 59).\nInhibitors are tested in dose response format from 10 mM stocks in 100% DMSO. The Labycyte Echo® 555 is used to dilute and transfer 100 nL per well containing a 10 point, 2.8-fold serial dilution to an assay plate. Two copies of the assay plate are prepared to measure the potency after 5 and 60 minutes incubation of the inhibitor with KRas G12C. His-tagged KRas G12C (20 nM) is added to the plates in assay buffer (20 mM Tris-HCl, pH 7.5, 0.01% TX-100, and 1 mM DTT). After 5 or 60 minutes incubation, 1 μM KRas Probe is added and allowed to covalently modify free KRas G12C for 1 hour. […] After 30 minutes, the fluorescent signal is read on an Envision™ Plate Reader (excitation at 340 nm, tracer emission (em) at […], and antibody emission at 615 nm). […]"}},
  "data": [
    {"compound": "C=CC(=O)N1CCN2C(=O)c3cc(Cl)c(-c4ccc(F)c5sccc45)c(Cl)c3OCC[C@H]2C1", "note": "(single isomer, unassigned) [Example 2]", "values": [
      {"measurement": "IC50", "setting": "[1]", "value": 89, "unit": "nM"},
      {"measurement": "IC50", "setting": "[2]", "value": 326, "unit": "nM"},
      {"measurement": "IC50", "setting": "[3]", "value": 34, "unit": "nM"}
    ]}
  ]
}
